PubChem BioAssay (NCI)
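1) Cells in 96-well plates. 2) Compound, 48 h, 5 concentrations. 3) Linear interpolation between surrounding doses. 4) Unreached endpoint = highest concentration. At the GI50, growth is halved. The concentration for full growth arrest is given as TGI.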

Key:
Experiment in all cases: NCI tumour cell line growth inhibition, 48 h
[1] = tested on: OVCAR-8 ovarian
[2] = tested on: SN12C renal
[3] = tested on: KM20L2 colon
[4] = tested on: DMS 114 small cell lung
[5] = tested on: HOP-62 NSCLC
[6] = tested on: NCI-H226 lung
[7] = tested on: SK-MEL-2 melanoma
[8] = tested on: HL-60(TB) leukemia
[9] = tested on: HOP-92 NSCLC
[10] = tested on: PC-3 prostate

SMILES | GI50 [1] [µM] | TGI [1] [µM] | GI50 [2] [µM] | TGI [2] [µM] | GI50 [3] [µM] | TGI [3] [µM] | GI50 [4] [µM] | TGI [4] [µM] | GI50 [5] [µM] | TGI [5] [µM] | GI50 [6] [µM] | TGI [6] [µM] | TGI [7] [µM] | TGI [8] [µM] | TGI [9] [µM] | GI50 [9] [µM] | GI50 [10] [µM] | TGI [10] [µM] | GI50 [7] [µM] | GI50 [8] [µM]
CC(C)=O.O=C([O-])C(F)(F)F.O=C([O-])C(F)(F)F.O=C([O-])C(F)(F)F.O=C([O-])C(F)(F)F.[Rh+2].[Rh+2] | 56.1 | > 100 | > 100 | > 100 | > 100 | > 100 | 26.8 | 90.3 | > 100 | > 100 | > 100 | > 100 |  |  |  |  |  |  |  | 
CCO/C(CCn1[nH]c(=O)c(Cl)c(Cl)c1=O)=N\NC(=O)C(=O)NN |  | > 100 |  | > 100 |  | > 100 |  | > 100 |  | > 100 |  | > 100 | > 100 | > 100 |  |  |  |  |  | 
O=S(=O)(c1ccccc1)c1nccs1 |  | > 100 |  | > 100 |  | > 100 |  | > 100 |  | > 100 |  | > 100 | > 100 | > 100 |  |  |  |  |  | 
S=c1nc(C(c2ccccc2)c2ccccc2)[nH][nH]1 |  | > 100 |  | > 100 |  | > 100 |  | > 100 |  | > 100 |  | > 100 | > 100 | > 100 |  |  |  |  |  | 
O=C(N/C(=C\c1c(O)ccc2ccccc12)c1nc2ccccc2[nH]1)c1ccccc1 |  | > 100 |  | > 100 |  | > 100 |  | > 100 |  | 76.1 |  |  | > 100 |  | > 100 |  |  |  |  | 
O=C(Nc1cc(Cl)ccc1Cl)c1cc2cccc(Br)c2oc1=O |  | > 100 |  | > 100 |  | > 100 |  | > 100 |  | > 100 |  | > 100 | > 100 | > 100 |  |  |  |  |  | 
O=c1/c(=C/c2c(O)ccc3ccccc23)sc2nc3ccccc3n12 |  | > 100 |  | > 100 |  | > 100 |  | > 100 |  | > 100 |  | > 100 | > 100 | > 100 | > 100 |  |  |  |  | 
CC1(C)OC2CC3COC(=O)C3CC2O1 (stereo not drawn) |  | > 100 |  | > 100 |  | > 100 |  | > 100 |  | > 100 |  | > 100 | > 100 | > 100 | > 100 |  |  |  |  | 
CC(N)Cc1ccc(Cl)cc1 (stereo not drawn) |  | > 100 |  | > 100 |  | > 100 |  |  |  | > 100 |  | > 100 | > 100 | > 100 | > 100 |  |  |  |  | 
CSC(=Nc1ccccc1Cl)NC(=O)c1ccc(Br)cc1 |  | > 100 |  | > 100 |  | > 100 |  | > 100 |  | 55.3 |  | > 100 | > 100 | > 100 |  |  |  |  |  | 
COc1cccc2c1C(=O)c1c(O)c3c(c(O)c1C2=O)C[C@@](O)(C(C)=O)C[C@@H]3OC1CC([N+]([O-])(Cc2ccccc2)Cc2ccccc2)C(O)C(C)O1 (stereo partly drawn) |  | 14.9 |  | 2.34 |  | 2.92 |  | 2.64 |  | 2.98 |  |  | 3.46 |  | 3.14 |  |  |  |  | 
Cc1cc(C)nc(NS(=O)(=O)c2ccc(Nc3c4ccccc4nc4c(C(=O)Nc5ccc(S(=O)(=O)Nc6cc(C)on6)cc5)ccc(Cl)c34)cc2)n1 |  | > 100 |  | 63 |  | 35.4 |  |  |  | 42.5 |  |  |  |  |  |  |  |  |  | 
COC1=CC(=O)C(Br)=CC1=O |  | 65.8 |  | 33.3 |  | > 100 |  | 35.5 |  | > 100 |  |  | 45.7 | 23.6 | 29.8 |  |  |  |  | 
COc1cc(OC)c(/C=C/C(=O)c2ccc(Nc3ncnc4ccccc34)cc2)c(OC)c1 | 1.34 | 3.54 | 1.66 | 10 |  |  |  |  | 0.966 | 2.32 | 1.03 | 3 | 7.36 | 2.19 | 3.89 | 1.08 | 0.707 | 8.33 | 1.01 | 0.389
C#CCN(N=O)C(=O)NCCCCC(NC(=O)OCc1ccccc1)C(=O)OCc1ccccc1 (stereo not drawn) |  | > 100 |  | > 100 |  | > 100 |  |  |  | > 100 |  | > 100 | > 100 | > 100 | 42.1 |  |  |  |  | 
CCC#CC[C@H](O)C/C=C1/C(=O)C=C[C@@H]1C/C=C\CCCC(=O)OC | 1.24 | 4.76 | 1.77 | 8.12 |  |  |  |  | 1.56 | 4.49 | 0.863 | 1.9 | 2.76 | 3.91 | 5.81 | 1.52 | 1.42 | 5.25 | 0.995 | 1.31
COc1cc2c(c(O)c1C)C(=O)CC(c1ccccc1)O2 (stereo not drawn) |  | > 100 |  | > 100 |  | 82.3 |  | > 100 |  | > 100 |  | 41.5 | 95.4 |  | 40.8 |  |  |  |  | 
CCC[CH2][Sn]([CH2]CCC)([CH2]CCC)[O]C(=O)C(OC(C)=O)c1ccccc1 (stereo not drawn) | 0.167 | 0.304 | 0.144 | 0.275 | 0.0801 | 0.217 |  |  | 0.149 | 0.287 | 0.178 | 0.336 |  |  | 0.222 | 0.0409 |  |  |  | 
O=C(O)C1CCN(Cc2oc(CO)cc(=O)c2O)C1 (stereo not drawn) |  | > 100 |  | > 100 |  |  |  |  |  | > 100 |  | > 100 | > 100 | > 100 | > 100 |  |  | > 100 |  | 
Cn1cnc([N+](=O)[O-])c1Sc1nnnn1C |  | 33.2 |  | 32.1 |  |  |  | 32.2 |  | > 100 |  | > 100 | 37.3 |  | 25.2 |  |  |  |  | 
CCCCC[C@H]1CC=C2C(=O)C=C[C@@H]2CC=CCCCC(=O)O[C@@H](CCCCC)CC=C2C(=O)C=C[C@@H]2CC=CCCCC(=O)O[C@@H](CCCCC)CC=C2C(=O)C=C[C@@H]2CC=CCCCC(=O)O1 | 0.277 | > 8.75 | 0.277 | > 8.75 |  |  |  |  | 0.259 | 0.775 | 1.13 | 3.81 | 0.969 | 0.76 | 1.82 | 0.359 | 0.342 | 1.5 | 0.281 | 0.243
CCOP(=O)(OCC)/C(C#N)=C\c1ccsc1 |  | > 100 |  | > 100 |  | > 100 |  | > 100 |  | > 100 |  | > 100 | > 100 |  | > 100 |  |  |  |  | 
